Consider three compounds from ChEMBL document CHEMBL4118098, “Discovery of DS28120313 as a potent orally active hepcidin production inhibitor: Design and optimization of novel 4,6-disubstituted indazole derivatives” (Bioorg Med Chem Lett, 2017).

The term inhibition denotes the drop in the measured response relative to a control, in per cent.

Assay [1] concerns the target Mitogen-activated protein kinase 3 (Homo sapiens) (UniProt P27361). The assay is described as follows: Inhibition of Erk1 (unknown origin) at 0.19 uM relative to control.
For assay [2], the target named is Tyrosine-protein kinase Lck (Homo sapiens) (UniProt P06239). The experiment in a line: Inhibition of LCK (unknown origin) at 0.19 uM relative to control.
For assay [3], the target named is Serine/threonine-protein kinase D3 (Homo sapiens) (UniProt O94806). The experiment in a line: Inhibition of PKD3 (unknown origin) at 0.19 uM relative to control.
The target of assay [4] is Ribosomal protein S6 kinase alpha-5 (Homo sapiens) (UniProt O75582). The assay is described as follows: Inhibition of MSK1 (unknown origin) at 0.19 uM relative to control.
Assay [5] addresses Ephrin type-A receptor 3 (Homo sapiens) (UniProt P29320). The experiment in a line: Inhibition of EPHA3 (unknown origin) at 0.19 uM relative to control.
Assay [6] has as its target Ephrin type-B receptor 4 (Homo sapiens) (UniProt P54760). The assay is described as follows: Inhibition of EPHB4 (unknown origin) at 0.19 uM relative to control.
In assay [7] the test system is Tyrosine-protein kinase ABL1 (Homo sapiens), P00519 [Y253F]. The experiment in a line: Inhibition of ABL1 Y253F mutant (unknown origin) at 0.19 uM relative to control.
The target in assay [8] is cAMP-dependent protein kinase catalytic subunit PRKX (Homo sapiens) (UniProt P51817). The assay is described as follows: Inhibition of PRKX (unknown origin) at 0.19 uM relative to control.
Sequence of cAMP-dependent protein kinase catalytic subunit PRKX (Homo sapiens) (P51817 whole entry): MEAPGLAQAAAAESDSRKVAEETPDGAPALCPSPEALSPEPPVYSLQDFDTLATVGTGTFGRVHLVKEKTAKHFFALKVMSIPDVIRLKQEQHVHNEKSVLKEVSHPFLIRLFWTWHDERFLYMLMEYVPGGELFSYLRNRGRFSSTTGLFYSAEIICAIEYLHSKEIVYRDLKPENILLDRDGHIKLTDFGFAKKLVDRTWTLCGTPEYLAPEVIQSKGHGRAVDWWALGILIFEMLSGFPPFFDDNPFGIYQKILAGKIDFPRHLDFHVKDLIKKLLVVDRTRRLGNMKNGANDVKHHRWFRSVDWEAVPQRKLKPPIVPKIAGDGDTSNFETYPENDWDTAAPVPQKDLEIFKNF
Assay [9] has as its target MAP kinase-activated protein kinase 3 (Homo sapiens) (UniProt Q16644). The assay is described as follows: Inhibition of MAPKAPK3 (unknown origin) at 0.19 uM relative to control.
The target of assay [10] is Tyrosine-protein kinase HCK (Homo sapiens) (UniProt P08631). The assay is described as follows: Inhibition of Hck (unknown origin) at 0.19 uM relative to control.
Sequence of Tyrosine-protein kinase HCK (Homo sapiens) (P08631 2-526 limits assumed): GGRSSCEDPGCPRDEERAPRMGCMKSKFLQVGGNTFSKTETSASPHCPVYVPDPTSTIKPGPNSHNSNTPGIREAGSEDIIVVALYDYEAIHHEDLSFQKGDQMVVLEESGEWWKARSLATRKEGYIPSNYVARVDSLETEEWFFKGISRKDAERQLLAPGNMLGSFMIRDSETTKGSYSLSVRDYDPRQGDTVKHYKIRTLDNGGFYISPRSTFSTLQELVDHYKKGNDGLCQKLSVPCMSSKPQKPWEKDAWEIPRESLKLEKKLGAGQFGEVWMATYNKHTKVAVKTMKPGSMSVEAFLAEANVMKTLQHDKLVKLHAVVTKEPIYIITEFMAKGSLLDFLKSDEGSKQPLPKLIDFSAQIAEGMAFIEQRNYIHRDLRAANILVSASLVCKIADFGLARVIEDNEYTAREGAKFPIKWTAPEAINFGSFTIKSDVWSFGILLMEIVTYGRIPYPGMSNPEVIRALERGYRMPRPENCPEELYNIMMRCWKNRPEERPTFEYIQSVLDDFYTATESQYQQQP
Assay [11] deals with Platelet-derived growth factor receptor alpha (Homo sapiens), P16234 [V561D]. The assay is described as follows: Inhibition of PDGFRA V561D mutant (unknown origin) at 0.19 uM relative to control.
Assay [12] has as its target Ephrin type-A receptor 8 (Homo sapiens) (UniProt P29322). The experiment in a line: Inhibition of EPHA8 (unknown origin) at 0.19 uM relative to control.
In assay [13] the target is High affinity nerve growth factor receptor (Homo sapiens) (UniProt P04629). The assay is described as follows: Inhibition of TRKA (unknown origin) at 0.19 uM relative to control.
The target of assay [14] is Interleukin-1 receptor-associated kinase 1 (Homo sapiens) (UniProt P51617). The experiment in a line: Inhibition of IRAK1 (unknown origin) at 0.19 uM relative to control.
The target of assay [15] is Protein kinase C zeta type (Homo sapiens) (UniProt Q05513). The experiment in a line: Inhibition of PKC-zeta (unknown origin) at 0.164 uM relative to control.
Assay [16] deals with Serine/threonine-protein kinase D2 (Homo sapiens) (UniProt Q9BZL6). The experiment in a line: Inhibition of PKD2 (unknown origin) at 0.164 uM relative to control.
Assay [17] deals with Casein kinase I isoform alpha (Homo sapiens) (UniProt P48729). The assay is described as follows: Inhibition of CSNK1A1 (unknown origin) at 0.164 uM relative to control.
Assay [18] concerns the target Death-associated protein kinase 3 (Homo sapiens) (UniProt O43293). The assay is described as follows: Inhibition of ZIPK (unknown origin) at 0.164 uM relative to control.
Assay [19] deals with Dual specificity tyrosine-phosphorylation-regulated kinase 1A (Homo sapiens) (UniProt Q13627). The assay is described as follows: Inhibition of DYRK1a (unknown origin) at 0.164 uM relative to control.
Assay [20] concerns the target Receptor-type tyrosine-protein kinase FLT3 (Homo sapiens) (UniProt P36888). The experiment in a line: Inhibition of FLT3 (unknown origin) at 0.164 uM relative to control.
Assay [21] addresses Rho-associated protein kinase 1 (Homo sapiens) (UniProt Q13464). The assay is described as follows: Inhibition of ROCK1 (unknown origin) at 0.164 uM relative to control.
Assay [22] deals with PAS domain-containing serine/threonine-protein kinase (Homo sapiens) (UniProt Q96RG2). The assay is described as follows: Inhibition of PASK (unknown origin) at 0.164 uM relative to control.
Sequence of PAS domain-containing serine/threonine-protein kinase (Homo sapiens) (Q96RG2 whole entry, the tested form may be a part): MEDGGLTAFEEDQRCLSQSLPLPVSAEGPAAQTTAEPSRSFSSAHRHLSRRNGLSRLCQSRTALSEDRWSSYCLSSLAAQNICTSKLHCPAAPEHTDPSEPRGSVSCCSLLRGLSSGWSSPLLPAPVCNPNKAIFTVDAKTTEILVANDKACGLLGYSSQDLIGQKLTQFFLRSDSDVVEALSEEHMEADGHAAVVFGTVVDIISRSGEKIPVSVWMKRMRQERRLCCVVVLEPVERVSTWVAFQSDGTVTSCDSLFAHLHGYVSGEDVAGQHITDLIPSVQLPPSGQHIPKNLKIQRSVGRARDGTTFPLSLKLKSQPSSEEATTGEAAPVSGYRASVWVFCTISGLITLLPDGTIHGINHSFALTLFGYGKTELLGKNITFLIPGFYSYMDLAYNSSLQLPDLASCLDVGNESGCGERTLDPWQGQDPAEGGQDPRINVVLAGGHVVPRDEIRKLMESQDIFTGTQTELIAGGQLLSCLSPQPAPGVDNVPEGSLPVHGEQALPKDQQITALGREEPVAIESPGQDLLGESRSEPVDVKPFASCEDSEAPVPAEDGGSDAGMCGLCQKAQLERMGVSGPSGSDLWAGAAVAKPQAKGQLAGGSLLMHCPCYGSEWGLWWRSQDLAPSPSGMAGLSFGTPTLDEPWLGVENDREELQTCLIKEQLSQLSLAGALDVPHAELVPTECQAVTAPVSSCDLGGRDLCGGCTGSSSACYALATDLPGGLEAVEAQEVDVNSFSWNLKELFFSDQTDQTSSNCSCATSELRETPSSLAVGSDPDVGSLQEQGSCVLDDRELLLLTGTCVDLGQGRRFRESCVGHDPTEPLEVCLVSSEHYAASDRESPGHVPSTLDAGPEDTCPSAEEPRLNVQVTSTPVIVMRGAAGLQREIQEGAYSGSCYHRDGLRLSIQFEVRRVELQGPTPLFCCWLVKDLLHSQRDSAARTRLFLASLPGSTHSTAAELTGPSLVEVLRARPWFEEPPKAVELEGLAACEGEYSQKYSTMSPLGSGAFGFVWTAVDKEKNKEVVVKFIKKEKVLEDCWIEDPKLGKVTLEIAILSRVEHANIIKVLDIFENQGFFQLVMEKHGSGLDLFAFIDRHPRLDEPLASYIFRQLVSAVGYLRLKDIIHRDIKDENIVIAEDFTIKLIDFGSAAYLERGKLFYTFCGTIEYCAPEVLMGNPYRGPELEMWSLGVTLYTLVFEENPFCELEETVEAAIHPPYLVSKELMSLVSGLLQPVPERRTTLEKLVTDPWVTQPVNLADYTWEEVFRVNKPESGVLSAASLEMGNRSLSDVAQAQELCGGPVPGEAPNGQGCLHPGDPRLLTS
The target of assay [23] is Serine/threonine-protein kinase pim-3 (Homo sapiens) (UniProt Q86V86). The experiment in a line: Inhibition of PIM3 (unknown origin) at 0.164 uM relative to control.
For assay [24], the target named is T1, Serine/threonine-protein kinase DCLK1 (Homo sapiens) (UniProt O15075).
T1 sequence (whole entry): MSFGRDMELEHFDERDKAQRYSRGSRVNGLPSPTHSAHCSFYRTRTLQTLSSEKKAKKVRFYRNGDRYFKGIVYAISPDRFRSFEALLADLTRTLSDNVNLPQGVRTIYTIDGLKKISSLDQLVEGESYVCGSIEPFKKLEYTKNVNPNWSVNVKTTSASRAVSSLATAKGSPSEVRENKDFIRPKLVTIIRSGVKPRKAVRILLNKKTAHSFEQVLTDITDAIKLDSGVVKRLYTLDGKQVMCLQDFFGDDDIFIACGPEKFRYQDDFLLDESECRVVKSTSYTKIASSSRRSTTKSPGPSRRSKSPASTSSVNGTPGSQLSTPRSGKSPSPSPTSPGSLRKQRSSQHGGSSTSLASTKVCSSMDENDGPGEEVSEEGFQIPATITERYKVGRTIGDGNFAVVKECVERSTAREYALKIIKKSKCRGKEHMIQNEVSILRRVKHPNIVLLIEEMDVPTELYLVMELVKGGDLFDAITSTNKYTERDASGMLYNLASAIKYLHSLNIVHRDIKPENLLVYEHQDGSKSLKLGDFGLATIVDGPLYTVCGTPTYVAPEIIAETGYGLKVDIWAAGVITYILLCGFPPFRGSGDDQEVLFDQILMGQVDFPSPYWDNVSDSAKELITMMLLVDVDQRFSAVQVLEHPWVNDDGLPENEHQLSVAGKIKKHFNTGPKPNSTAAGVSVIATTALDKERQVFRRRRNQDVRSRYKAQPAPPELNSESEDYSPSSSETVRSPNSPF
The experiment in a line: Inhibition of DCAMKL1 (unknown origin) at 0.164 uM relative to control.

Assay [25] concerns the target cAMP-dependent protein kinase catalytic subunit PRKX (Homo sapiens) (UniProt P51817). The assay is described as follows: Inhibition of PRKX (unknown origin) at 0.164 uM relative to control.
Assay [26] deals with Calcium/calmodulin-dependent protein kinase type 1D (Homo sapiens) (UniProt Q8IU85). The assay is described as follows: Inhibition of CamK1d (unknown origin) at 0.164 uM relative to control.
Sequence of Calcium/calmodulin-dependent protein kinase type 1D (Homo sapiens) (Q8IU85 whole entry, looked up): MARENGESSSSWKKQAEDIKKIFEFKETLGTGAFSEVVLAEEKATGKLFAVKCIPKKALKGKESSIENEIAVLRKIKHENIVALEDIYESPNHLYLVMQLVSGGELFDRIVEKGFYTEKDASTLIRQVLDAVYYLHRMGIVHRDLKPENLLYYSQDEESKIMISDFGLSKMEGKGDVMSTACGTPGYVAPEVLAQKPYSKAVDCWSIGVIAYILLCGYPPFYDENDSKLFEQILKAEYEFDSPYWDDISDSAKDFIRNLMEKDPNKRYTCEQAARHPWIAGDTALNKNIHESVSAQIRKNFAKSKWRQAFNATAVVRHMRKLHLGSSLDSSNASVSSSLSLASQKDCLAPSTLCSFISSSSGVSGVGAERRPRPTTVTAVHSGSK
For assay [27], the target named is Mitogen-activated protein kinase kinase kinase kinase 5 (Homo sapiens) (UniProt Q9Y4K4). The assay is described as follows: Inhibition of KHS1 (unknown origin) at 0.164 uM relative to control.
The target of assay [28] is RAC-beta serine/threonine-protein kinase (Homo sapiens) (UniProt P31751). The assay is described as follows: Inhibition of AKT2 (unknown origin) at 0.45 uM relative to control.
Sequence of RAC-beta serine/threonine-protein kinase (Homo sapiens) (P31751 whole entry): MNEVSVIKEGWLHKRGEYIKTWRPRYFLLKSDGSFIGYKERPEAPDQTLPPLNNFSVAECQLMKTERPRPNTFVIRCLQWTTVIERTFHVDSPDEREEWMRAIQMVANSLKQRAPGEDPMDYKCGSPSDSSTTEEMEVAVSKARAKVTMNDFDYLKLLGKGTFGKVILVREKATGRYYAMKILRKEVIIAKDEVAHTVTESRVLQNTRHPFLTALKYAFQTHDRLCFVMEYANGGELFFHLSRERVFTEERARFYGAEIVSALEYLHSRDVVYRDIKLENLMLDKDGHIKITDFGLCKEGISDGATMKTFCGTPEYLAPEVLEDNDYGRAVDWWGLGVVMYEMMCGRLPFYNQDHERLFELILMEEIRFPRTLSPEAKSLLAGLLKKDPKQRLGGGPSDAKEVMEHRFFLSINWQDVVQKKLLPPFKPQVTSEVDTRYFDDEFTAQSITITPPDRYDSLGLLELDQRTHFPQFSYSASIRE
The target of assay [29] is Aurora kinase C (Homo sapiens) (UniProt Q9UQB9). The assay is described as follows: Inhibition of AurC (unknown origin) at 0.45 uM relative to control.
The target of assay [30] is PAS domain-containing serine/threonine-protein kinase (Homo sapiens) (UniProt Q96RG2). The assay is described as follows: Inhibition of PASK (unknown origin) at 0.45 uM relative to control.

Sequence of Mitogen-activated protein kinase 3 (Homo sapiens) (P27361 whole entry): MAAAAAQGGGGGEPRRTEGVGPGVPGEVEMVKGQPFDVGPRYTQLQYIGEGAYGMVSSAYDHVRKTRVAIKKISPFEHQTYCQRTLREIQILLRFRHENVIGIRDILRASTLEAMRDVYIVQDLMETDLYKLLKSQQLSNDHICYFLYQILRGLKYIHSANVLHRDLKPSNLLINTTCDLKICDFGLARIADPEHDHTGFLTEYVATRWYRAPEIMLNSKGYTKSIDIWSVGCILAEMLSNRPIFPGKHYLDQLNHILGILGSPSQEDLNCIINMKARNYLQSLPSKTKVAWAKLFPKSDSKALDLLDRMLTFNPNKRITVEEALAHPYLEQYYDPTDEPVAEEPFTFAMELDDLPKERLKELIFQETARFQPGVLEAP
Sequence of MAP kinase-activated protein kinase 3 (Homo sapiens) (Q16644 whole entry, looked up): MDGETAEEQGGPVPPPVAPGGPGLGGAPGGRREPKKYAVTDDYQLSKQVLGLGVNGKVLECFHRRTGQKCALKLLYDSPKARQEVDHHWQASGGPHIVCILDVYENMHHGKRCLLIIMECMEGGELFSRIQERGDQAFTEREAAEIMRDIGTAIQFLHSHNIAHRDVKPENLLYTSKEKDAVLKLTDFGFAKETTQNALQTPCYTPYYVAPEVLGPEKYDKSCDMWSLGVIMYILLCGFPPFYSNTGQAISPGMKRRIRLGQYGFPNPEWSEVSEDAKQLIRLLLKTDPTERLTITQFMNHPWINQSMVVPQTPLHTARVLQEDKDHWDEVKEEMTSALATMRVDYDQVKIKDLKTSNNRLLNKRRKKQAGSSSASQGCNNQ
Sequence of Ephrin type-A receptor 8 (Homo sapiens) (P29322 whole entry): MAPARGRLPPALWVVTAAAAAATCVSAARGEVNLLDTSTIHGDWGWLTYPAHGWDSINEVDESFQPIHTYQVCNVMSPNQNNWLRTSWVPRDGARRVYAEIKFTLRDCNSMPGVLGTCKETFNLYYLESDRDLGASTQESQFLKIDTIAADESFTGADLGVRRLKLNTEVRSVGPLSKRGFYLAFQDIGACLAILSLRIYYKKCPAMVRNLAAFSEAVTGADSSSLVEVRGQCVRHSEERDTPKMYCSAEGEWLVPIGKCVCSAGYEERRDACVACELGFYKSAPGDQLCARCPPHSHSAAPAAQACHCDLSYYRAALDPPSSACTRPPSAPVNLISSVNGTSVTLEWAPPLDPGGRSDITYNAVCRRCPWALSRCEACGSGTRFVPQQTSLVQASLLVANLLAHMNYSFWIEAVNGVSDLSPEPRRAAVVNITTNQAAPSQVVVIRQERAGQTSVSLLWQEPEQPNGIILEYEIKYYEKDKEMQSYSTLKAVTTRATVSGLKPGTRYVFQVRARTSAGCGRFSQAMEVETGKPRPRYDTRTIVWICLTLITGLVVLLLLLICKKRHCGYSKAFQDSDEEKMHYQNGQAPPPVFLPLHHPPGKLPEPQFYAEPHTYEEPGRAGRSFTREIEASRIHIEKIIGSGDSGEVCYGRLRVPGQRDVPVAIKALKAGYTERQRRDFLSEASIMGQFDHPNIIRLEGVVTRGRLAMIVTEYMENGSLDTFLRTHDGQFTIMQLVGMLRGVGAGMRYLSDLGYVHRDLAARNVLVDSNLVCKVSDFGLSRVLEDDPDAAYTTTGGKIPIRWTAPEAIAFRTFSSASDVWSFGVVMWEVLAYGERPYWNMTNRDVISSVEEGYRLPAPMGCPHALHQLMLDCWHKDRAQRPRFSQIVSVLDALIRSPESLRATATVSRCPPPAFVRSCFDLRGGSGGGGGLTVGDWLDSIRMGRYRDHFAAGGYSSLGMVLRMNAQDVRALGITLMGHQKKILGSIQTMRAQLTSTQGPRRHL

In the case of `Cc1[nH]nc(C2CC2)c1-c1ccc2c(-c3ccc(N4CCN(C)CC4)nc3)n[nH]c2c1`, the inhibition is 3.7% in assay [1]; 26.7% in [2]; 4.7% in [3]; 1.3% in [4]; 1.3% in assay [5]; 0.3% in [6]. Also, the inhibition in [7] was 69.3%; in assay [8] it was 2.3%; in assay [9], -1.7%; in assay [10], 6.7%; in [11], 63.3%; in assay [12] it was 9.3%. The inhibition was 37.7% in assay [13] and -2.7% in assay [14].
For `COC(=O)Nc1cc(-c2c(C3CC3)n[nH]c2C)cc2[nH]ncc12`, the inhibition was 11.7% in assay [15]; 9.3% in assay [16]; 5% in assay [17]; -1% in assay [18]; 3.3% in assay [19]; 5% in [20]. The inhibition in [21] is -0.3%; in assay [22] it was -3%; in assay [23], -2.3%; in [24], -4.7%; in assay [25], -3.3%; in assay [26], -9.3%. Further, in assay [27], the inhibition is 8.3%.
Take `Cc1n[nH]c(C)c1-c1ccc2c(NC(=O)c3ccc(N4CCN(C)CC4)cc3)n[nH]c2c1`: the inhibition in assay [28] was -2%; in assay [29], -1%; in [30], -2%.
